The results in this text go back to patent publication US8338039B2, “Fuel cell” (Sony Corporation, priority 2009, dated 2012).

Molecules are shown by their SMILES.

Data set [1] in a line: Dissolution of additive in the fuel solution. The format is physicochemical. To be noted: fuel solution containing 1% ethanol; 1% DEET. Here is the method: The fuel solution is a pH buffer solution composed of 2.0 M imidazole/H2SO4, 0.4 M glucose, and ethanol, pH 7.0. […] The plant essential oil is added to the fuel solution and suspended therein by stirring immediately before current measurement.

Data set [2] deals with anode having the enzyme catalyst (glucose dehydrogenase, diaphorase). Put plainly: Current generated by the enzyme-catalyst anode of the fuel cell with additive in the fuel solution. The format is biochemical. The protocol: Tests were conducted under the following conditions to investigate how the plant essential oil added to the fuel solution affects the fuel cell performance. The plant essential oils used for the test are nutmeg oil, lemongrass oil, and palmarosa oil. The concentration of each plant essential oil in the fuel solution is 1%. The control substance is N,N-diethyl-m-toluamide (DEET), which is an active ingredient used for most insect repellent sprays. The concentration of DEET in the fuel solution is 1%. Incidentally, the concentration of DEET in the formulation is required to be less than 12% according to the Japanese regulation. The fuel solution is a pH buffer solution composed of 2.0 M imidazole/H2SO4, 0.4 M glucose, and ethanol, pH 7.0. […] The plant essential oil is added to the fuel solution and suspended therein by stirring immediately before current measurement. The electrode is one which is made of carbon fiber (1 mm thick). The electrode is coated with an immobilizing agent which is composed of the following ingredients. A mixture of 1.0 PLL and 0.0625 glutaraldehyde, 75.2 μL A solution of glucose dehydrogenase (150 mg/mL), 12.4 μL A solution of diaphorase (150 mg/mL), 1.6 μL A solution of NADH (40.96 mg/mL), 4 μL A solution of AQ2S (60 mM), 37.4 μL An enzyme produced by Amano Enzyme Co., Ltd. is immobilized on the above-mentioned immobilizing agent. […]

As for `CCN(CC)C(=O)c1cccc(C)c1` [DEET, N,N-diethyl-m-toluamide], the “solubility in the fuel solution” value in data set [1] is reported as “dissolves 1% DEET completely”. For the same compound, in data set [2] (1% additive in fuel solution (2.0 M imidazole/H2SO4, 0.4 M glucose, ethanol, pH 7.0), carbon fiber anode), the “current value produced by the enzymatic catalyst at the anode, compared with fuel solution not incorporated with the additive” value is given as “lower current value”. For the same compound, the “effect on the fuel cell performance” value in data set [2] (added to the fuel solution at 1%) is listed as “deteriorates the fuel cell performance”.
